Data published in patent publication US20220402862A1 (Intellia Therapeutics, Inc., priority 2019, published 2022).

Test system: mouse B2M gene
Assay: In vivo editing in mouse spleen, G650 sgRNA, % indel by NGS
Set-up: species or system CD-1 female mice
Conditions: experiment 108
Description: In brief, to quantitatively determine the efficiency of editing at the target location in the genome, genomic DNA was isolated and deep sequencing was utilized to identify the presence of insertions and deletions introduced by gene editing.
PCR primers were designed around the target site (e.g., within B2M), and the genomic area of interest was amplified. Additional PCR was performed according to the manufacturer's protocols (Illumina) to add the necessary chemistry for sequencing. The amplicons were sequenced on an Illumina MiSeq instrument. The reads were aligned to the mouse or rat reference genome (e.g., GRCm38) after eliminating those having low quality scores. The resulting files containing the reads were mapped to the reference genome (BAM files), where reads that overlapped the target region of interest were selected and the number of wild type reads versus the number of reads which contain an insertion, substitution, or deletion was calculated.
The editing percentage (e.g., the “indel efficiency” or “percent indels”) was defined as the total number of sequence reads with insertions or deletions over the total number of sequence reads, including wild type.
The in vivo delivery to liver, spleen, and bone marrow was assessed by measuring editing efficiency for materials delivered with formulations including various amine lipid compounds. […] LNPs were formulated at a 1:2 w/w ratio of sgRNA to Cas9 mRNA and at an N/P ratio of about 6. Molar concentrations of lipids in the lipid component of the LNPs are used at mol % amine lipid/DSPC/cholesterol/PEG-2k-DMG of 50/9/38/3. The final LNPs compositions were characterized and analyzed as described in Example 120. Analysis of average particle size, polydispersity (PDI), total RNA content and encapsulation efficiency of RNA are shown in Table 8.
CD-1 female mice were dosed i.v. at 0.1, 0.3, or 1 mg/kg and assessed for editing in liver, spleen, and bone marrow.

| Compound | % Editing in Spleen (G650, i.v. dose 0.1 mg/kg) [%] | % Editing in Spleen (G650, i.v. dose 0.3 mg/kg) [%] | % Editing in Spleen (G650, i.v. dose 1 mg/kg) [%] |
| --- | --- | --- | --- |
| CCCCC/C=C\C/C=C\CCCCCCCC(=O)OCC(COC(=O)CCC(OCCCCCCCC)OCCCCCCCC)COC(=O)OCCCN(CC)CC (stereo not drawn) [Compound 1, 3-((4,4-bis(octyloxy)butanoyl)oxy)-2-((((3-(diethylamino)propoxy)carbonyl)oxy)methyl)propyl (9Z,12Z)-octadeca-9,12-dienoate, reference compound] | 0.62 | 2.2 | 6.26 |
| CCCCC/C=C\C/C=C\CCCCCCCC(=O)OCC(COC(=O)CC12CC3CC(CC(C3)C1)C2)COC(=O)OCCCN(CC)CC (stereo not drawn) [Compound 107, 3-(2-((3 r,5 r, 7r)-adamantan-1-yl)acetoxy)-2-((((3-(diethylamino)propoxy)carbonyl)oxy)methyl)propyl (9Z,12Z)-octadeca-9,12-dienoate] | 0.08 | 0.12 | 0.3 |
